Test [1] addresses Carbonic anhydrase 9 (Homo sapiens) (UniProt Q16790). Description: Inhibition of human CA9 by CO2 hydration assay.
Test [2] concerns the target Carbonic anhydrase 1 (Homo sapiens) (UniProt P00915).
Description: Inhibition of human CA1 by CO2 hydration assay
Test [3] concerns the target Carbonic anhydrase 2 (Homo sapiens) (UniProt P00918).
Description: Inhibition of human CA2 by CO2 hydration assay
The target of test [4] is Carbonic anhydrase 12 (Homo sapiens) (UniProt O43570).
Chain of Carbonic anhydrase 12 (Homo sapiens) (O43570 whole entry): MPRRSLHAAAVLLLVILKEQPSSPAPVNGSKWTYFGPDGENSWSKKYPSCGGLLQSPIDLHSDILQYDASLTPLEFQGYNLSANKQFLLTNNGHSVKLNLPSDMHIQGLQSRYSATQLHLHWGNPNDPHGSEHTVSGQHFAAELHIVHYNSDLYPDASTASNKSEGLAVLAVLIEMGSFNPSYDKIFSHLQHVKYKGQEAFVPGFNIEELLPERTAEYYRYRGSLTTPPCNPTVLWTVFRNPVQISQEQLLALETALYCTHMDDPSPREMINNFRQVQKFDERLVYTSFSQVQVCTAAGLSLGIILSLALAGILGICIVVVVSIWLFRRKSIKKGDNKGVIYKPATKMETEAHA
Description: Inhibition of human CA12 by CO2 hydration assay

Chain of Carbonic anhydrase 1 (Homo sapiens) (P00915 2-261 limits assumed): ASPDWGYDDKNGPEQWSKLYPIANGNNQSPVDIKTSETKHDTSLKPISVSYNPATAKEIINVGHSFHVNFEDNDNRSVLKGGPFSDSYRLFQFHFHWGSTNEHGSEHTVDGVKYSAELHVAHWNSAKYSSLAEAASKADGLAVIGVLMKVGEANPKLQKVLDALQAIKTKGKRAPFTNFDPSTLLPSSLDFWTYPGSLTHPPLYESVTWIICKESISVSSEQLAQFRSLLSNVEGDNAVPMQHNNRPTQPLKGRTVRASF

In general, Ki refers to a dissociation constant, usually derived from enzyme kinetics or from competition with a known ligand. The low end stands for a stronger hold on the target, the high end for a looser hold on the target. On to `O=c1cc(CCl)c2ccc(O)cc2o1`, for which the Ki in test [1] was 0.478 µM; in test [2], over 100 µM; in test [3], over 100 µM; in test [4] it was 8.02 µM.
For the compound `O=c1cc(Cl)c2ccccc2o1`, the Ki in test [1] was 4.92 µM; in test [2], 86.9 µM; in test [3], over 100 µM; in test [4], 7.03 µM.
The like results for `O=c1oc2ccccc2cc1O` were, in that order, 0.508 µM, 79.4 µM, over 100 µM and 9.6 µM.
As for `O=c1cc(O)c2ccccc2o1`, the Ki in test [1] is 0.418 µM; in test [2], 95 µM; in test [3], over 100 µM; in test [4] it was 6.3 µM.
In the case of `O=c1cc(CCl)c2ccc(Cl)cc2o1`, the Ki in test [1] is 0.359 µM; in test [2], 72.8 µM; in test [3], over 100 µM; in test [4] it was 0.735 µM.
Turning to `O=c1ccc2ccccc2o1`, the Ki in test [1] and in test [4] was over 100 µM throughout.
With `O=c1ccc2cc(O)ccc2o1`, the Ki in test [1] is 0.198 µM; in test [2], over 100 µM; in test [3], over 100 µM; in test [4], 0.683 µM.
Regarding `O=c1ccc2ccc(O)cc2o1`, the Ki was 0.482 µM in test [1] and 58.4 µM in test [2].

Source of the values: ChEMBL document CHEMBL1208713, “Coumarins incorporating hydroxy- and chloro-moieties selectively inhibit the transmembrane, tumor-associated carbonic anhydrase isoforms IX and XII over the cytosolic ones I and II” (Bioorg Med Chem Lett, 2010).
